# Measurements as given in PubChem BioAssay AID1259407 (Chemical Carcinogenesis Research Information System (CCRIS), 2018).
# The source made the active and inactive calls. How the calls were made is not given here.
# System: CCRIS mutagenicity, Ames/micronucleus/aberration tests
# Test: CCRIS mutagenicity studies
# [1] = Test System: AMES SALMONELLA TYPHIMURIUM, Strain/Indicator: TA100, Metabolic Activation: NONE, Method: STANDARD PLATE
# [2] = Test System: AMES SALMONELLA TYPHIMURIUM, Strain/Indicator: TA98, Metabolic Activation: NONE, Method: STANDARD PLATE
# [3] = Test System: AMES SALMONELLA TYPHIMURIUM, Strain/Indicator: TA98, Metabolic Activation: RAT, LIVER, S-9, AROCLOR 1254, Method: STANDARD PLATE
# [4] = Test System: AMES SALMONELLA TYPHIMURIUM, Strain/Indicator: TA100, Metabolic Activation: RAT, LIVER, S-9, AROCLOR 1254, Method: STANDARD PLATE
# [5] = Test System: AMES SALMONELLA TYPHIMURIUM, Strain/Indicator: TA1538, Metabolic Activation: NONE, Method: STANDARD PLATE
# [6] = Test System: AMES SALMONELLA TYPHIMURIUM, Strain/Indicator: TA1538, Metabolic Activation: RAT, LIVER, S-9, AROCLOR 1254, Method: STANDARD PLATE
# [7] = Test System: AMES SALMONELLA TYPHIMURIUM, Strain/Indicator: TA98, Metabolic Activation: NONE, Method: PREINCUBATION
structure (smiles),measurement,setting,value
CC[C@H](C)[C@H]1O[C@]2(C=C[C@@H]1C)C[C@@H]1C[C@@H](C/C=C(\C)[C@@H](O[C@H]3C[C@H](OC)[C@@H](O[C@H]4C[C@H](OC)[C@@H](NC)[C@H](C)O4)[C@H](C)O3)[C@@H](C)/C=C/C=C3\CO[C@@H]4[C@H](O)C(C)=C[C@@H](C(=O)O1)[C@]34O)O2,mutagenic call,"End Point: Ames Salmonella typhimurium, Test System: TA97a, Metabolic Activation: None",inactive; negative
same,mutagenic call,"End Point: Ames Salmonella typhimurium, Test System: TA97a, Metabolic Activation: S-9",inactive; negative
same,mutagenic call,"End Point: Ames Salmonella typhimurium, Test System: TA98, Metabolic Activation: None",inactive; negative
same,mutagenic call,"End Point: Ames Salmonella typhimurium, Test System: TA98, Metabolic Activation: S-9",inactive; negative
same,mutagenic call,"End Point: Ames Salmonella typhimurium, Test System: TA100, Metabolic Activation: None",inactive; negative
same,mutagenic call,"End Point: Ames Salmonella typhimurium, Test System: TA100, Metabolic Activation: S-9",inactive; negative
same,mutagenic call,"End Point: Ames Salmonella typhimurium, Test System: TA1535, Metabolic Activation: None",inactive; negative
same,mutagenic call,"End Point: Ames Salmonella typhimurium, Test System: TA1535, Metabolic Activation: S-9",inactive; negative
same,mutagenic call,"End Point: E. coli, Test System: WP2, Metabolic Activation: None",inactive; negative
same,mutagenic call,"End Point: E. coli, Test System: WP2, Metabolic Activation: S-9",inactive; negative
same,mutagenic call,"End Point: E. coli, Test System: WP2uvrA pKM101, Metabolic Activation: None",inactive; negative
same,mutagenic call,"End Point: E. coli, Test System: WP2uvrA pKM101, Metabolic Activation: S-9",inactive; negative
same,mutagenic call,"End Point: E. coli, Test System: WP2uvrA, Metabolic Activation: None",inactive; negative
same,mutagenic call,"End Point: E. coli, Test System: WP2uvrA, Metabolic Activation: S-9",inactive; negative
same,mutagenic call,"End Point: Gene mutation, Test System: Chinese hamster V79 lung fibroblasts, Metabolic Activation: None",inactive; negative
same,mutagenic call,"End Point: Gene mutation, Test System: Chinese hamster V79 lung fibroblasts, Metabolic Activation: S-9",inactive; negative
same,mutagenic call,"End Point: In vitro chromosomal aberrations, Test System: Chinese hamster ovary (CHO-WBL) cells, Metabolic Activation: None",inactive; negative
same,mutagenic call,"End Point: In vitro chromosomal aberrations, Test System: Chinese hamster ovary (CHO-WBL) cells, Metabolic Activation: S-9",inactive; negative
same,mutagenic call,"End Point: In vivo chromosomal aberrations, Test System: Bone marrow cells, Species: Mouse, Route: Oral",inactive; negative
CC(C)(S)[C@@H](N)C(=O)O,mutagenic call,"Test System: AMES SALMONELLA TYPHIMURIUM, Strain/Indicator: TA92, Metabolic Activation: HOMOGENIZED V-79, Method: STANDARD PLATE",active; positive
same,mutagenic call,"Test System: AMES SALMONELLA TYPHIMURIUM, Strain/Indicator: TA92, Metabolic Activation: NONE, Method: STANDARD PLATE",active; positive
same,mutagenic call,"Test System: AMES SALMONELLA TYPHIMURIUM, Strain/Indicator: TA92, Metabolic Activation: RAT, KIDNEY, S-9, Method: STANDARD PLATE",active; positive
same,mutagenic call,"Test System: AMES SALMONELLA TYPHIMURIUM, Strain/Indicator: TA92, Metabolic Activation: RAT, LIVER, S-9, Method: STANDARD PLATE",active; positive
same,mutagenic call,[1],active; positive
same,mutagenic call,"Test System: AMES SALMONELLA TYPHIMURIUM, Strain/Indicator: TA100, Metabolic Activation: RAT, KIDNEY, S-9, Method: STANDARD PLATE",active; positive
same,mutagenic call,"Test System: AMES SALMONELLA TYPHIMURIUM, Strain/Indicator: TA100, Metabolic Activation: RAT, LIVER, S-9, Method: STANDARD PLATE",active; positive
same,mutagenic call,"Test System: AMES SALMONELLA TYPHIMURIUM, Strain/Indicator: TA102, Metabolic Activation: NONE, Method: STANDARD PLATE",active; positive
same,mutagenic call,"Test System: CHINESE HAMSTER V-79, Strain/Indicator: V-79/6-THIOGUANINE, Metabolic Activation: NONE, Method: STANDARD PLATE",inactive; negative
CCCCOc1cc(N=Nc2ccccc2)ccc1N=Nc1c(S(=O)(=O)O)cc2ccc(N)cc2c1O,mutagenic call,[2],inactive; negative
same,mutagenic call,[3],active; positive
same,mutagenic call,[1],inactive; negative
same,mutagenic call,[4],inactive; negative
same,mutagenic call,[5],inactive; negative
same,mutagenic call,[6],active; positive
FC(F)(F)c1ccc(Cl)c(Cl)c1,mutagenic call,"Test System: E. coli, Strain/Indicator: WP2uvrA/pKM101, Metabolic Activation: None, Method: Preincubation",inactive; negative
same,mutagenic call,"Test System: E. coli, Strain/Indicator: WP2uvrA/pKM101, Metabolic Activation: Rat, Liver, S9, Sodium phenobarbital and 5,6-benzoflavone, Method: Preincubation",inactive; negative
CCCCOC(=O)C=Cc1ccc([N+](=O)[O-])o1,mutagenic call,[7],active; positive
O=C1C=CC[C@H](/C=C/c2ccccc2)O1,mutagenic call,"End Point: IN VITRO CHROMOSOMAL ABERRATIONS, Test System: CHO CELLS, Metabolic Activation: NONE",active; positive (structural changes)
same,mutagenic call,"End Point: IN VITRO CHROMOSOMAL ABERRATIONS, Test System: CHO CELLS, Metabolic Activation: RAT, LIVER, S-9, AROCLOR 1254",active; positive (structural changes)
O=NN1CN2CN(C1)CN(N=O)C2,mutagenic call,"End Point: IN VITRO CHROMOSOMAL ABERRATIONS, Test System: CHL CELLS, Metabolic Activation: RAT, LIVER, S-9, SODIUM PHENOBARBITAL AND 5,6-BENZOFLAVONE",active; positive (structural and ploidy changes)
same,mutagenic call,[7],inactive; negative
same,mutagenic call,"Test System: AMES SALMONELLA TYPHIMURIUM, Strain/Indicator: TA98, Metabolic Activation: RAT LIVER S-9, PHENOBARBITAL AND BETA-NAPHTHOFLAVONE, Method: PREINCUBATION",inactive; negative
same,mutagenic call,"Test System: AMES SALMONELLA TYPHIMURIUM, Strain/Indicator: TA100, Metabolic Activation: NONE, Method: PREINCUBATION",active; positive
same,mutagenic call,"Test System: AMES SALMONELLA TYPHIMURIUM, Strain/Indicator: TA100, Metabolic Activation: RAT LIVER S-9, PHENOBARBITAL AND BETA-NAPHTHOFLAVONE, Method: PREINCUBATION",active; positive
same,mutagenic call,"Test System: AMES SALMONELLA TYPHIMURIUM, Strain/Indicator: TA1535, Metabolic Activation: NONE, Method: PREINCUBATION",inactive; negative
same,mutagenic call,"Test System: AMES SALMONELLA TYPHIMURIUM, Strain/Indicator: TA1535, Metabolic Activation: RAT LIVER S-9, PHENOBARBITAL AND BETA-NAPHTHOFLAVONE, Method: PREINCUBATION",inactive; negative
same,mutagenic call,"Test System: AMES SALMONELLA TYPHIMURIUM, Strain/Indicator: TA1537, Metabolic Activation: NONE, Method: PREINCUBATION",inactive; negative
same,mutagenic call,"Test System: AMES SALMONELLA TYPHIMURIUM, Strain/Indicator: TA1537, Metabolic Activation: RAT LIVER S-9, PHENOBARBITAL AND BETA-NAPHTHOFLAVONE, Method: PREINCUBATION",inactive; negative
same,mutagenic call,"Test System: AMES SALMONELLA TYPHIMURIUM, Strain/Indicator: TA1538, Metabolic Activation: NONE, Method: PREINCUBATION",inactive; negative
same,mutagenic call,"Test System: AMES SALMONELLA TYPHIMURIUM, Strain/Indicator: TA1538, Metabolic Activation: RAT LIVER S-9, PHENOBARBITAL AND BETA-NAPHTHOFLAVONE, Method: PREINCUBATION",inactive; negative
same,mutagenic call,"Test System: E.COLI, Strain/Indicator: WP2UVRA, Metabolic Activation: NONE, Method: PREINCUBATION",inactive; negative
same,mutagenic call,"Test System: E.COLI, Strain/Indicator: WP2UVRA, Metabolic Activation: RAT LIVER S-9, PHENOBARBITAL AND BETA-NAPHTHOFLAVONE, Method: PREINCUBATION",active; positive
Nc1cc(CCO)c(N)c([N+](=O)[O-])c1,mutagenic call,[2],active; positive
same,mutagenic call,[3],active; positive
same,mutagenic call,[1],inactive; negative
same,mutagenic call,[4],active; positive
same,mutagenic call,"Test System: AMES SALMONELLA TYPHIMURIUM, Strain/Indicator: TA1535, Metabolic Activation: NONE, Method: STANDARD PLATE",inactive; negative
same,mutagenic call,"Test System: AMES SALMONELLA TYPHIMURIUM, Strain/Indicator: TA1535, Metabolic Activation: RAT, LIVER, S-9, AROCLOR 1254, Method: STANDARD PLATE",inactive; negative
same,mutagenic call,"Test System: AMES SALMONELLA TYPHIMURIUM, Strain/Indicator: TA1537, Metabolic Activation: NONE, Method: STANDARD PLATE",inactive; negative
same,mutagenic call,"Test System: AMES SALMONELLA TYPHIMURIUM, Strain/Indicator: TA1537, Metabolic Activation: RAT, LIVER, S-9, AROCLOR 1254, Method: STANDARD PLATE",inactive; negative
same,mutagenic call,[5],active; positive
same,mutagenic call,[6],active; positive
O=[N+]([O-])c1ccccc1SS/C(Cl)=C(\Cl)C(F)(F)F,mutagenic call,"Test System: AMES SALMONELLA TYPHIMURIUM, Strain/Indicator: TA100(DNP6), Metabolic Activation: NONE, Method: PREINCUBATION",active; positive
same,mutagenic call,"Test System: AMES SALMONELLA TYPHIMURIUM, Strain/Indicator: TA100(NR), Metabolic Activation: NONE, Method: PREINCUBATION",active; positive
